Calls of active or inactive are those of the source.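 Rule for the calls: active = mean half-maximal activating concentration from the dose-response fit at or below a set limit; inactive = the rest.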
Target: CHO-XBP1 luciferase reporter, IRE1-XBP1 UPR activation
Assay: XBP1 luciferase reporter activation – CHO-XBP1 cells, luminescence, counter-screen for apoptotic UPR arm activators, dose response (AID 489040);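 note: reporter read after six hours of compound exposure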

How did the EC50 turn out when `O=C(c1cccs1)N(C(=O)c1cccs1)c1ccc(Br)cn1` was run?
The EC50 was 17.9 µM.

`Oc1c(CN2CCCCC2)cc(Br)c2cccnc12` was tested. Which EC50 did it give?
The EC50 was > 80 µM (inactive).

How did the EC50 turn out when `CC1=C/C(=N\OC(=O)/C=C/c2ccccc2)C(C)=CC1=O` was run?
Its EC50 is > 80 µM (inactive).

How did the EC50 turn out when `O=C(NCCc1ccccc1)c1coc(=O)c(Br)c1` was run?
The EC50 was > 80 µM (inactive).

With `O=C1/C(=C/c2ccccc2[N+](=O)[O-])COc2ccccc21` as the compound, how does the EC50 read?
The EC50 was > 80 µM (inactive).

With `C/C(=N\NC(=O)C(c1ccccc1)c1ccccc1)c1ccccn1` as the compound, how does the EC50 read?
Its EC50 is > 80 µM (inactive).

Which EC50 does the source give for `Fc1ccc(NC(=S)Nc2nccs2)cc1` here?
The EC50 was > 80 µM (inactive).

For `CCCCOc1ccc(N2C(=O)CC(N(O)c3ccccc3)C2=O)cc1` (stereo not drawn), which EC50 is on record?
The EC50 was > 80 µM (inactive).

With `S=C(Nc1ccccc1)c1ccccn1` as the compound, how does the EC50 read?
The EC50 was > 80 µM (inactive).

With `CCCn1c(CC)nc([N+](=O)[O-])c1S(=O)(=O)c1ccccc1` as the compound, how does the EC50 read?
Its EC50 is > 80 µM (inactive).

How did the EC50 turn out when `COC(=O)c1cc(=O)n(CCc2ccc(OC)cc2)c(=Nc2ccc(F)c(Cl)c2)s1` was run?
Its EC50 is > 80 µM (inactive).

With `Cc1cnc(NC(=O)c2cc(S(=O)(=O)N(C)C)ccc2N2CCCC2)s1` as the compound, how does the EC50 read?
The EC50 was 3.28 µM.

`CN=c1scc(-c2ccco2)n1/N=C/c1ccc(O)c(O)c1` was tested. Which EC50 did it give?
The EC50 was > 80 µM (inactive).

`C=CCN=c1scc(-c2ccco2)n1/N=C/c1ccc(O)c(O)c1O` was tested. Which EC50 did it give?
Its EC50 is > 80 µM (inactive).

Which EC50 does the source give for `O=[N+]([O-])c1ccc(N/N=C/c2cccc(O)c2O)c(S(=O)(=O)N2CCOCC2)c1` here?
Its EC50 is “inactive”.

For `COCc1cc(C)nc(OCC(=O)N/N=C/c2ccc(-c3cc([N+](=O)[O-])ccc3Cl)o2)c1C#N`, which EC50 is on record?
Its EC50 is 13.2 µM.

How did the EC50 turn out when `S=c1[nH]nc(-c2cc(-c3ccccc3)n[nH]2)n1/N=C/C(Br)=C/c1ccccc1` was run?
The EC50 was > 80 µM (inactive).

How did the EC50 turn out when `N#CC12COC3(CCCCC3C1(C#N)C#N)OC2=N` (stereo not drawn) was run?
Its EC50 is > 80 µM (inactive).

Which EC50 does the source give for `Cn1c(-c2cccc(OCc3ccccc3)c2)nc2c1c(=O)[nH]c(=O)n2Cc1ccccc1` here?
The EC50 was > 80 µM (inactive).

`CC1=NN(c2cccc(C(=O)O)c2)C(=O)/C1=C\C=C/c1ccccc1` was tested. Which EC50 did it give?
Its EC50 is > 80 µM (inactive).

Which EC50 does the source give for `COC(=O)c1cc(=O)n(Cc2ccc3c(c2)OCO3)c(=Nc2ccc(F)c(Cl)c2)s1` here?
The EC50 was > 80 µM (inactive).

`COc1ccc(N=C2S/C(=C\c3ccc(N4CCOCC4)o3)C(=O)N2CCc2c[nH]c3ccccc23)cc1` was tested. Which EC50 did it give?
Its EC50 is > 80 µM (inactive).

With `Cc1cccc(CS(=O)(=O)c2ncc(Cl)c(C(=O)Nc3ccc(F)cc3)n2)c1` as the compound, how does the EC50 read?
Its EC50 is > 80 µM (inactive).

`O=C1NC(=O)N(CCc2ccc(F)cc2)C(=O)/C1=C/C=C/c1ccccc1` was tested. Which EC50 did it give?
The EC50 was > 80 µM (inactive).

`Cc1ccc(C(C[N+](=O)[O-])n2nc(C)cc2C)cc1` (stereo not drawn) was tested. Which EC50 did it give?
The EC50 was > 80 µM (inactive).

For `O=C(CSc1ccc2ccccc2c1)NCCc1ccc(O)c(O)c1`, which EC50 is on record?
Its EC50 is > 80 µM (inactive).

For `CC(C)c1cccc(-c2ccc3c(c2)S(=O)(=O)c2cccc(C(=O)NCc4ccccc4Cl)c2C3=O)c1`, which EC50 is on record?
The EC50 was 11.2 µM.

How did the EC50 turn out when `O=C(Nc1ccc(S(=O)(=O)N2CCCC2)cc1)c1ccc([N+](=O)[O-])o1` was run?
Its EC50 is > 80 µM (inactive).

For `CCOC(=O)c1c2ccc(OCC(=O)N/N=C/c3ccc(C)cc3)cc2n2ccccc12`, which EC50 is on record?
The EC50 was > 80 µM (inactive).

How did the EC50 turn out when `COc1ccc(NC(=O)c2sc3nc(N4CCOCC4)c4c(c3c2N)CC(C)(C)OC4)c(OC)c1` was run?
The EC50 was > 80 µM (inactive).

`Cc1ccc(C(=O)Cn2c(C(=O)/C=C/c3ccccc3)nc3ccccc32)cc1` was tested. Which EC50 did it give?
Its EC50 is 18.3 µM.

How did the EC50 turn out when `O=C(C#Cc1ccccc1)c1cccc([N+](=O)[O-])c1` was run?
Its EC50 is > 80 µM (inactive).

`CC(=O)c1cccc(NC(=O)CSc2ncc(C(=O)Nc3ccccc3)c(=O)n2C)c1` was tested. Which EC50 did it give?
The EC50 was > 80 µM (inactive).

With `Cc1ccc(CS(=O)(=O)c2ncc(Cl)c(C(=O)Nc3nnc(C(C)C)s3)n2)cc1` as the compound, how does the EC50 read?
Its EC50 is > 80 µM (inactive).

How did the EC50 turn out when `CCOC(=O)c1c(C)oc2c1c(C(c1ccccc1)N1CCOCC1)c(O)c1ccccc12` (stereo not drawn) was run?
Its EC50 is > 80 µM (inactive).

Which EC50 does the source give for `O=[N+]([O-])c1ccc(Sc2nnnn2-c2ccccc2)nc1` here?
The EC50 was > 80 µM (inactive).

With `CCCCNC1C(CC)C(CCC)C(C#N)(C#N)C1(C#N)C#N` (stereo not drawn) as the compound, how does the EC50 read?
Its EC50 is > 80 µM (inactive).

How did the EC50 turn out when `COc1ccc(C(=O)Sc2ccc(Cl)cc2)cc1OC` was run?
The EC50 was > 80 µM (inactive).

Which EC50 does the source give for `COc1cc(/C=C2\COC/C(=C\c3ccc(O)c(OC)c3)C2=O)ccc1O` here?
Its EC50 is > 80 µM (inactive).

For `CNC[C@@H](Cc1ccccc1)NC[C@@H](CC1CCCCC1)NCCCc1ccccc1`, which EC50 is on record?
Its EC50 is > 80 µM (inactive).

For `CCc1nnc(NC(=O)c2nc(S(=O)(=O)Cc3ccc(C)cc3)ncc2Cl)s1`, which EC50 is on record?
The EC50 was > 80 µM (inactive).

`CCOC(=O)c1cnc(Nc2nc3ccccc3o2)nc1CSC(=S)N1CCCCC1` was tested. Which EC50 did it give?
The EC50 was 9.07 µM.

How did the EC50 turn out when `CC1=C(/C=C/C(C)=C/C=C/C(C)=C/C(=O)Nc2ccc(O)cc2)C(C)(C)CCC1` was run?
Its EC50 is > 80 µM (inactive).

`O=C(NCc1cccnc1)/C(=C/c1ccc(-c2ccc(Cl)cc2)o1)S(=O)(=O)c1ccccc1` was tested. Which EC50 did it give?
Its EC50 is > 80 µM (inactive).

With `COc1ccccc1N1C(=O)C=C(Sc2nc(C)cc(C)n2)C1=O` as the compound, how does the EC50 read?
The EC50 was > 80 µM (inactive).

How did the EC50 turn out when `O=C(c1ccc(Cl)cc1)C(CN1CCCC1)c1ccccc1` (stereo not drawn) was run?
Its EC50 is > 80 µM (inactive).

For `C/C(=C\c1ccc(N(C)C)cc1)[N+](=O)[O-]`, which EC50 is on record?
The EC50 was > 80 µM (inactive).

Which EC50 does the source give for `COc1ccc(C(=O)NCC(=O)N/N=C/c2ccc([N+](=O)[O-])o2)cc1OC` here?
The EC50 was > 80 µM (inactive).

Source: PubChem BioAssay AID489040 (Sanford-Burnham Center for Chemical Genomics, 2010)
